According to patent US20200016159A1, “N3-CYCLICALLY SUBSTITUTED THIENOURACILS AND USE THEREOF” (Bayer Aktiengesellschaft, priority 2016, published 2020):

Target: T1, human adenosine A2b receptor (Homo sapiens, UniProt P29275)
T1 sequence (P29275 1-332): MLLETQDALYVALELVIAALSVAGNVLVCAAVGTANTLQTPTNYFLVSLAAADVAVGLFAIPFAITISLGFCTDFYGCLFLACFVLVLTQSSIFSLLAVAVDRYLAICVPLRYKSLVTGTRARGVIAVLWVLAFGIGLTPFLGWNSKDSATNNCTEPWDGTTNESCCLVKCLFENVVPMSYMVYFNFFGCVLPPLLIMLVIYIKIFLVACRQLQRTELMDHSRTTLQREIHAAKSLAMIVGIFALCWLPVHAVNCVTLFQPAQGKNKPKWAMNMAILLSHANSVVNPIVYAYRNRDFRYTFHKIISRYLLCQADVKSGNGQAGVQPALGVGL
Experiment: Cellular in vitro reporter gene test for A2b receptor activity (antagonism of NECA)
Format: cell-based
Parameters: expressed in transfected cells; host or cells: CHO-K1 (Chinese hamster ovary) with CRE-luciferase reporter
Settings: recombinant CHO-K1 cells, CRE-luciferase reporter, co-incubation with EC50 concentration of NECA, 3 hours
How it was run: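 CHO-K1 cells expressing recombinant human A2b receptor plus a CRE-driven firefly luciferase reporter. Compounds co-incubated with NECA at its same-day EC50 concentration; luminescence read 3 hours after NECA addition. IC50 values, sometimes means of several determinations rounded to two significant figures.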

Cc1c(Cn2[nH]ccc2=O)sc2c1c(=O)n(C1CC(F)(F)C1)c(=O)n2CCC(F)(F)F [Example 313, 3-(3,3-Difluorocyclobutyl)-5-methyl-6-[(5-oxo-2,5-dihydro-1H-pyrazol-1-yl)methyl]-1-(3,3,3-trifluoropropyl)thieno[2,3-d]pyrimidine-2,4(1H,3H)-dione]
IC50: 93 nM

COC(=O)N=C1NCCN1Cc1sc2c(c1C)c(=O)n(C1CC1)c(=O)n2CCC(F)(F)F [Example 12, Methyl [1-{[3-cyclopropyl-5-methyl-2,4-dioxo-1-(3,3,3-trifluoropropyl)-1,2,3,4-tetrahydrothieno[2,3-d]pyrimidin-6-yl]methyl}imidazolidin-2-ylidene]carbamate]
IC50: 4.2 nM

COCCn1c(=O)n([C@H]2C[C@@H]2C)c(=O)c2c(C)c(Cn3nc[nH]c3=O)sc21 [Example 325, 1-(2-Methoxyethyl)-5-methyl-3-[(1S,2S)-2-methylcyclopropyl]-6-[(5-oxo-4,5-dihydro-1H-1,2,4-triazol-1-yl)methyl]thieno[2,3-d]pyrimidine-2,4(1H,3H)-dione]
IC50: 43 nM

Cc1c(CN2CCNC(=O)C2=O)sc2c1c(=O)n(C1CC(C)(C)C1)c(=O)n2CCC(F)(F)F [Example 167, 3-(3,3-Dimethylcyclobutyl)-6-[(2,3-dioxopiperazin-1-yl)methyl]-5-methyl-1-(3,3,3-trifluoropropyl)thieno[2,3-d]pyrimidine-2,4(1H,3H)-dione]
IC50: 5.3 nM

CCCn1c(=O)n(C2CC2C)c(=O)c2c(C)c(CN3CCNC3=O)sc21 (single isomer, unassigned) [Example 229, 5-Methyl-3-(2-methylcyclopropyl)-6-[(2-oxoimidazolidin-1-yl)methyl]-1-propylthieno[2,3-d]pyrimidine-2,4(1H,3H)-dione]
IC50: 1.2 nM

CCCCn1c(=O)n(C2CC2)c(=O)c2c(C)c(Cn3nc[nH]c3=O)sc21 [Example 4, 1-Butyl-3-cyclopropyl-5-methyl-6-[(5-oxo-4,5-dihydro-H-1,2,4-triazol-1-yl)methyl]thieno[2,3-d]pyrimidine-2,4(1H,3H)-dione]
IC50: 34 nM

CCC1CC1n1c(=O)c2c(C)c(CN3CCNC3=O)sc2n(CCOC)c1=O (single isomer, unassigned) [Example 302, 3-(2-Ethylcyclopropyl)-1-(2-methoxyethyl)-5-methyl-6-[(2-oxoimidazolidin-1-yl)methyl]thieno[2,3-d]pyrimidine-2,4(1H,3H)-dione]
IC50: 10 nM

[2H]C([2H])(c1sc2c(c1C)c(=O)n(C1CC1)c(=O)n2CCOC)N1CCNC1=O [Example 30, 3-Cyclopropyl-1-(2-methoxyethyl)-5-methyl-6-[(2-oxoimidazolidin-1-yl)dideuteromethyl]thieno[2,3-d]pyrimidine-2,4(1H,3H)-dione]
IC50: 9.3 nM

Cc1c(CN2CCNC2=S)sc2c1c(=O)n(C1CC1)c(=O)n2CC1CCCO1 (racemic) [Example 40, 3-Cyclopropyl-5-methyl-1-(tetrahydrofuran-2-ylmethyl)-6-[(2-thioxoimidazolidin-1-yl)methyl]thieno[2,3-d]pyrimidine-2,4(1H,3H)-dione]
IC50: 15 nM

[2H]C([2H])(c1sc2c(c1C)c(=O)n(C1CC1)c(=O)n2CCC(F)(F)F)N1CCNC1=O [Example 16, 3-Cyclopropyl-5-methyl-6-[(2-oxoimidazolidin-1-yl)dideuteromethyl]-1-(3,3,3-trifluoropropyl)thieno[2,3-d]pyrimidine-2,4(1H,3H)-dione]
IC50: 3 nM

COCCn1c(=O)n(C2CCC2)c(=O)c2c(C)c(CN3CCNC3=O)sc21 [Example 115, 3-Cyclobutyl-1-(2-methoxyethyl)-5-methyl-6-[(2-oxoimidazolidin-1-yl)methyl]thieno[2,3-d]pyrimidine-2,4(1H,3H)-dione]
IC50: 4.3 nM

Cc1c(CN2CCNC2=O)sc2c1c(=O)n([C@H]1C[C@@H]1C)c(=O)n2CC1CCO1 (single isomer, unassigned) [Example 283]
IC50: 25 nM

Cc1c(Cn2nc[nH]c2=O)sc2c1c(=O)n(C1CC1)c(=O)n2CC1CC1(F)F (racemic) [Example 20, 3-Cyclopropyl-1-[(2,2-difluorocyclopropyl)methyl]-5-methyl-6-[(5-oxo-4,5-dihydro-1H-1,2,4-triazol-1-yl)methyl]thieno[2,3-d]pyrimidine-2,4(1H,3H)-dione (racemate)]
IC50: 130 nM

COC(=O)N=C1NCCN1Cc1sc2c(c1C)c(=O)n(C1CC1C)c(=O)n2CCOC(F)(F)F (racemic) [Example 267, Methyl [1-({5-methyl-3-(2-methylcyclopropyl)-2,4-dioxo-1-[2-(trifluoromethoxy)ethyl]-1,2,3,4-tetrahydrothieno[2,3-d]pyrimidin-6-yl}methyl)imidazolidin-2-ylidene]carbamate]
IC50: 2.4 nM

Cc1c(Cn2nc[nH]c2=O)sc2c1c(=O)n(C1CC1)c(=O)n2CCCF [Example 197, 3-Cyclopropyl-1-(3-fluoropropyl)-5-methyl-6-[(5-oxo-4,5-dihydro-1H-1,2,4-triazol-1-yl)methyl]thieno[2,3-d]pyrimidine-2,4(1H,3H)-dione]
IC50: 120 nM

Cc1c(CN2CCNC2=O)sc2c1c(=O)n(C1CC1C)c(=O)n2C[C@H]1CCCO1 (single isomer, unassigned) [Example 288]
IC50: 47 nM

Cc1c(CN2CCNC2=O)sc2c1c(=O)n(C1CC1)c(=O)n2CCOC(F)(F)F [Example 35, 3-Cyclopropyl-5-methyl-6-[(2-oxoimidazolidin-1-yl)methyl]-1-[2-(trifluoromethoxy)ethyl]thieno[2,3-d]pyrimidine-2,4(1H,3H)-dione]
IC50: 1.8 nM

COC(=O)N=C1NCCN1Cc1sc2c(c1C)c(=O)n(C1(C)CC1)c(=O)n2CCC(F)(F)F [Example 58, Methyl [1-{[5-methyl-3-(1-methylcyclopropyl)-2,4-dioxo-1-(3,3,3-trifluoropropyl)-1,2,3,4-tetrahydrothieno[2,3-d]pyrimidin-6-yl]methyl}imidazolidin-2-ylidene]carbamate]
IC50: 10 nM

Cc1c(CN2CCNC2=NC#N)sc2c1c(=O)n(C1CCC1)c(=O)n2CCC(F)(F)F [Example 111, [1-{[3-Cyclobutyl-5-methyl-2,4-dioxo-1-(3,3,3-trifluoropropyl)-1,2,3,4-tetrahydrothieno[2,3-d]pyrimidin-6-yl]methyl}imidazolidin-2-ylidene]cyanamide]
IC50: 1.7 nM

CCC1(n2c(=O)c3c(C)c(CN4CCNC4=O)sc3n(CCOC)c2=O)CC1 [Example 108, 3-(1-Ethylcyclopropyl)-1-(2-methoxyethyl)-5-methyl-6-[(2-oxoimidazolidin-1-yl)methyl]thieno[2,3-d]pyrimidine-2,4(1H,3H)-dione]
IC50: 110 nM

Cc1c(CN2CCNC2=O)sc2c1c(=O)n(C1CC1C)c(=O)n2CC1CC(F)(F)C1 (single isomer, unassigned) [Example 253, 1-[(3,3-Difluorocyclobutyl)methyl]-5-methyl-3-(2-methylcyclopropyl)-6-[(2-oxoimidazolidin-1-yl)methyl]thieno[2,3-d]pyrimidine-2,4(1H,3H)-dione]
IC50: 2.7 nM

CCn1c(=O)n(C2CC2C)c(=O)c2c(C)c(CN3CCNC3=O)sc21 (racemic) [Example 224, 1-Ethyl-5-methyl-3-(2-methylcyclopropyl)-6-[(2-oxoimidazolidin-1-yl)methyl]thieno[2,3-d]pyrimidine-2,4(1H,3H)-dione]
IC50: 11 nM
